Results from PubChem BioAssay AID2060327 (Molecular Pharmacology Branch, DTP, NCI, 2025).
Where “and” joins values, the source holds several entries; their conditions need not be identical. Identical values can stand only once. Values belong to the compound of their own block, whether it stands above or below them.

System: PC-3 multi-cell spheroids, viability
Assay: Anticancer human tumor PC-3 cell line growth inhibition [IpAb];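 also: spheroids exposed to compounds for 7 days before readout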;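 as to viability, T/C: 100% = DMSO vehicle control wells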
Conditions: for viability, T/C: stronger effect = lower value
Description: Combinatorial screen of targeted agents with ipatasertib and abemaciclib in multi-cell type tumor spheroids
A high-throughput screen of multi-cell type tumor spheroids was designed to identify active combinations of targeted small molecules and ipatasertib or abemaciclib. Complex spheroids include a stromal component modeled by human endothelial cells (HUVEC) and fibroblasts modeled by human mesenchymal stem cells (MSCs). The concentration ranges selected for each drug and investigational agent were based upon clinically achievable concentrations if the clinical Cmax of the agent was known.
Compounds. The drugs and investigational agents: ipatasertib (NSC767898), abemaciclib(NSC768073), selumetinib (NSC741078), trametinib (758246), adavosertib (NSC754352), everolimus (NSC733504), sapanisertib (NSC764658), vemurafenib (NSC761431), venetoclax (NSC766270), copanlisib (NSC809693), apelisib (NSC765974), palbociblib (NSC758247), vemurafenib (NSC761431), dabrafenib (NSC764134), ravoxertinib (NSC781343), BMS-387032 (NSC767048), sotorasib (NSC818433), talazoparib (NSC767125) and afursertib (NSC778305), were obtained from the National Cancer Institute (NCI) Developmental Therapeutics Program Chemical Repository. The FDA-approved anticancer drug set is available from the NCI Developmental Therapeutics Program. […] The stock solutions were prepared in dimethyl sulfoxide (DMSO, Sigma-Aldrich, St. Louis, MO, cat. D2650) at 800-fold the tested concentration and stored at -70 degrees C prior to their use. All drugs and investigational agents were tested over a range starting from a high concentration at or near the clinical Cmax and decreasing in half-log increments. If the clinical Cmax for an agent had not been determined, the highest concentration tested was 10 microM.
NCI60 Cell Culture. NCI60 cell lines were obtained from the NCI Developmental Therapeutics Program Tumor Repository. For each lot of cells, the Repository performed Applied Biosystems AmpFLSTR Identifiler testing with PCR amplification to confirm consistency with the published Identifier STR profile for each cell line. Cells were kept in continuous culture for no more than 20 passages. The optimal seeding densities for each of the cell lines at each time point assessed were determined prior to performing the concentration response studies. Briefly, the NCI60 human tumor lines were grown as monolayers in RPMI 1640 medium supplemented with 10% FBS and 2 mmol/L L-glutamine.
An additional 9 lines were from the NCI60 cell line panel including MDA-MB-231 breast carcinoma, MDA-MB-468 breast carcinoma, MCF7 breast carcinoma, Hs578T breast carcinoma, MALME-3M melanoma, SK-MEL-2 melanoma, SK-OV-3 ovarian carcinoma, DU-145 prostate carcinoma, PC-3 prostate carcinoma, all cell lines along with major genetic alterations are listed on Table 2. Pooled donor human umbilical vein endothelial cells (HUVEC, Lonza, cat. CC-2519) and human mesenchymal stem cells (hMSC, Lonza, cat. PT-2501) were purchased from Lonza (Walkersville, MD).
PDMR cell lines were grown in complete medium (DC medium): Dulbecco's modified Eagle's medium (DMEM)/F12 supplemented with 5% fetal bovine serum (FBS), 2 mM L-glutamine, 100 U/mL penicillin and 100 µg/ml streptomycin, 0.4 µg/ml hydrocortisone, 10 ng/ml epidermal growth factor (EGF) recombinant human protein, 24 µg/mL adenine, and 0.1 mg/mL primocin. During culture from frozen stock vials, PDMR cells were cultured in the same medium containing 10 µM Y-27632 (see Table 3). The PDCs were cultured in complete DMEM/F12 media without 10 microM Y-27632 dihydrochloride for at least two passages prior to the screen. The pooled donor HUVEC and hMSC were cultured in endothelial cell growth medium 2 (PromoCell, Heidelberg, Germany, cat. C-22011) and mesenchymal stem cell growth medium 2 (PromoCell, cat. C-28009), respectively. For all experiments, HUVEC and hMSC were used at passages </=5.
[…]

[1] = curve of first compound, second compound 0.1 µM
[2] = curve of first compound, second compound 0.316 µM
[3] = curve of first compound, second compound 1 µM
[4] = curve of first compound, second compound 3.16 µM
[5] = curve of first compound, second compound 10 µM
[6] = second compound 0.1 µM, first compound 0.0316 µM
[7] = second compound 0.1 µM, first compound 0.1 µM
[8] = second compound 0.316 µM, first compound 0.0316 µM
[9] = second compound 0.316 µM, first compound 0.1 µM
[10] = second compound 1 µM, first compound 0.0316 µM
[11] = second compound 1 µM, first compound 0.1 µM
[12] = second compound 3.16 µM, first compound 0.0316 µM
[13] = second compound 3.16 µM, first compound 0.1 µM
[14] = second compound 10 µM, first compound 0.0316 µM
[15] = second compound 10 µM, first compound 0.1 µM

IC50 (curve of compound): 8630 nM and > 10000 nM
Compound: Cn1nccc1Nc1nccc(-c2ccn(C(CO)c3ccc(Cl)c(F)c3)c(=O)c2)n1 (centres undefined)
viability, T/C (compound 0.0316 µM): 98.1% and 104%
viability, T/C (compound 0.1 µM): 99.6% and 97.7%
viability, T/C (compound 0.316 µM): 90.7% and 104%
viability, T/C (compound 1 µM): 119% and 109%
viability, T/C (compound 3.16 µM): 125% and 119%
viability, T/C (compound 10 µM): 41.7% and 92.9%

Compound: Cn1ncc(Cl)c1-c1cc(C(=O)NC(CN)Cc2cccc(F)c2)sc1Cl (centres undefined) + CC(C)NCC(C(=O)N1CCN(c2ncnc3c2C(C)CC3O)CC1)c1ccc(Cl)cc1
IC50 [1]: 81.1 nM
IC50 [2]: < 31.6 nM
IC50 [3]: < 31.6 nM
IC50 [4]: < 31.6 nM
IC50 [5]: < 31.6 nM
viability, T/C [6]: 59.9%
viability, T/C [7]: 48.8%
viability, T/C (second compound 0.1 µM, first compound 0.316 µM): 34.3%
viability, T/C (second compound 0.1 µM, first compound 1 µM): 19.8%
viability, T/C (second compound 0.1 µM, first compound 3.16 µM): 16.9%
viability, T/C (second compound 0.1 µM, first compound 10 µM): 0.15%
viability, T/C [8]: 35.7%
viability, T/C [9]: 40.3%
viability, T/C (second compound 0.316 µM, first compound 0.316 µM): 29.2%
viability, T/C (second compound 0.316 µM, first compound 1 µM): 17.7%
viability, T/C (second compound 0.316 µM, first compound 3.16 µM): 14.1%
viability, T/C (second compound 0.316 µM, first compound 10 µM): 0.17%
viability, T/C [10]: 24.3%
viability, T/C [11]: 24.5%
viability, T/C (second compound 1 µM, first compound 0.316 µM): 19.9%
viability, T/C (second compound 1 µM, first compound 1 µM): 16.4%
viability, T/C (second compound 1 µM, first compound 3.16 µM): 15.8%
viability, T/C (second compound 1 µM, first compound 10 µM): 0.14%
viability, T/C [12]: 15.2%
viability, T/C [13]: 15.8%
viability, T/C (second compound 3.16 µM, first compound 0.316 µM): 15.5%
viability, T/C (second compound 3.16 µM, first compound 1 µM): 16%
viability, T/C (second compound 3.16 µM, first compound 3.16 µM): 15.3%
viability, T/C (second compound 3.16 µM, first compound 10 µM): 0.26%
viability, T/C [14]: 13.6%
viability, T/C [15]: 14.1%
viability, T/C (second compound 10 µM, first compound 0.316 µM): 13.6%
viability, T/C (second compound 10 µM, first compound 1 µM): 14.6%
viability, T/C (second compound 10 µM, first compound 3.16 µM): 13.9%
viability, T/C (second compound 10 µM, first compound 10 µM): 0.16%

IC50 (curve of compound): 5210 nM and 6000 nM
Compound: CC1(C)CCC(CN2CCN(c3ccc(C(=O)NS(=O)(=O)c4ccc(NCC5CCOCC5)c([N+](=O)[O-])c4)c(Oc4cnc5[nH]ccc5c4)c3)CC2)=C(c2ccc(Cl)cc2)C1
viability, T/C (compound 0.0316 µM): 105% and 102%
viability, T/C (compound 0.1 µM): 107% and 108%
viability, T/C (compound 0.316 µM): 105% and 112%
viability, T/C (compound 1 µM): 107% and 108%
viability, T/C (compound 3.16 µM): 85.4% and 109%
viability, T/C (compound 10 µM): 3.66% and 4.01%

Compound: CC(C)n1nc(-c2ccc3oc(N)nc3c2)c2c(N)ncnc21 + CC(C)NCC(C(=O)N1CCN(c2ncnc3c2C(C)CC3O)CC1)c1ccc(Cl)cc1
IC50 [1]: 1.3 nM
IC50 [2]: < 0.316 nM
IC50 [3]: < 0.316 nM
IC50 [4]: < 0.316 nM
IC50 [5]: < 0.316 nM
viability, T/C (second compound 0.1 µM, first compound 0.000316 µM): 63%
viability, T/C (second compound 0.1 µM, first compound 0.001 µM): 52.6%
viability, T/C (second compound 0.1 µM, first compound 0.00316 µM): 38.1%
viability, T/C (second compound 0.1 µM, first compound 0.01 µM): 20.2%
viability, T/C [6]: 10.4%
viability, T/C [7]: 10%
viability, T/C (second compound 0.316 µM, first compound 0.000316 µM): 37.3%
viability, T/C (second compound 0.316 µM, first compound 0.001 µM): 32.8%
viability, T/C (second compound 0.316 µM, first compound 0.00316 µM): 18.4%
viability, T/C (second compound 0.316 µM, first compound 0.01 µM): 11.8%
viability, T/C [8]: 7.3%
viability, T/C [9]: 6.67%
viability, T/C (second compound 1 µM, first compound 0.000316 µM): 20%
viability, T/C (second compound 1 µM, first compound 0.001 µM): 14.8%
viability, T/C (second compound 1 µM, first compound 0.00316 µM): 9.96%
viability, T/C (second compound 1 µM, first compound 0.01 µM): 7.81%
viability, T/C [10]: 5.46%
viability, T/C [11]: 4.64%
viability, T/C (second compound 3.16 µM, first compound 0.000316 µM): 12%
viability, T/C (second compound 3.16 µM, first compound 0.001 µM): 10.3%
viability, T/C (second compound 3.16 µM, first compound 0.00316 µM): 8.27%
viability, T/C (second compound 3.16 µM, first compound 0.01 µM): 5.41%
viability, T/C [12]: 3.69%
viability, T/C [13]: 4.13%
viability, T/C (second compound 10 µM, first compound 0.000316 µM): 12%
viability, T/C (second compound 10 µM, first compound 0.001 µM): 10.2%
viability, T/C (second compound 10 µM, first compound 0.00316 µM): 7.33%
viability, T/C (second compound 10 µM, first compound 0.01 µM): 3.83%
viability, T/C [14]: 2.74%
viability, T/C [15]: 2.74%
